Assay results reported in patent US12410164B2, “Heterocyclic compounds and medical use thereof” (FONDAZIONE TELETHON, priority 2018, dated 2025).

What was measured:
F508del-CFTR [1] = target: T1, F508del-CFTR (Homo sapiens, UniProt P13569, DEL508-508); test: Transepithelial short-circuit current in primary nasal epithelial cells of F508del homozygous CF patient; assay type: cell-based; design: endogenous in cells; host or cells: primary bronchial and nasal epithelial cells from CF patients homozygous for F508del; details: FIG. 3C
Description: The culture and functional study of human primary nasal and bronchial epithelial cells have been described in detail above (Scudieri P, et al. J Physiol. 2012, 590, 6141-6155). Briefly, nasal epithelial cells were taken after informed consent using the “brushing” technique. Bronchial cells were instead obtained by proteolytic digestion of bronchi isolated from the lungs of patients (suffering from CF or other pulmonary pathology (idiopathic pulmonary fibrosis, pulmonary hypertension, emphysema) subjected to transplant operations. The informed consent of the patients was obtained also in this case. After isolation, epithelial cells were cultured in a liquid medium of defined serum-free composition. This medium consists of a mixture of LHC9/RPMI 1640 (1:1) enriched with various hormones and growth factors (Scudieri P, et al. J Physiol. 2012, 590, 6141-6155). After 3-5 passages, necessary for the expansion of the initial number, the cells were seeded at high density on Snapwell porous supports (Corning, 3801). After 24 hours, the culture medium was replaced by a mixture consisting of DMEM and Ham's F12 (1:1) enriched with 2% foetal bovine serum and other supplements. […] With this mode, the transepithelial potential difference is locked to zero and the resulting current, supplied by the Voltage Clamp is recorded by an AD/DA converter (PowerLab, ADInstruments).

[2] = tested on: calcium-dependent chloride secretion; test: Short-circuit current in bronchial epithelial cells: UTP-activated, inh-A01-inhibited chloride secretion; assay type: cell-based, human; details: compound 10 μM, activated with UTP
Protocol: FIG. 3. PP008 corrective activity on primary epithelial cells. (A) The representative plots and (B) the bar chart show the results obtained by treating bronchial epithelial cells from a patient homozygous for the mutation F508del with PP008 (10 μM) in the presence and absence of VX-809 (1 μM). As control, cells were treated for 24 h with vehicle alone (dimethylsufoxide, DMSO) at the same concentration (0.1%) used to add test compounds. […] (C) Results obtained on nasal epithelial cells of a homozygous F508del patient. *, p<0.05; ***, p<0.001.
The culture and functional study of human primary nasal and bronchial epithelial cells have been described in detail above (Scudieri P, et al. J Physiol. 2012, 590, 6141-6155). Briefly, nasal epithelial cells were taken after informed consent using the “brushing” technique. […] With this mode, the transepithelial potential difference is locked to zero and the resulting current, supplied by the Voltage Clamp is recorded by an AD/DA converter (PowerLab, ADInstruments).

G542X-CFTR = test: HS-YFP assay in null CFBE41o− cells transfected with G542X-CFTR; assay type: cell-based
Protocol: To assess the function and pharmacological sensitivity of G542X-CFTR mutant, inventors used the null version of CFBE41o− cells, i.e. cells with negligible expression of endogenous CFTR and without HS-YFP. Such cells were transiently transfected with the plasmid coding for HS-YFP alone or in combination with: empty plasmid, plasmid coding for wild type CFTR, or plasmid coding for G542X-CFTR. For transfection, cells were seeded in 96-well microplates (30,000 cells/well) in 150 μl of antibiotic-free culture medium. After 24 hours, cells were transfected with the desired plasmids. For each well, 0.2 μg of total plasmid DNA and 0.5 μl of Lipofectamine 2000 (Invitrogen) were first pre-mixed in 50 μl of OPTIMEM (Invitrogen) to generate transfection complexes (60 minutes at room temperature), and then added to the cells. After 24 hour, the complexes were removed by replacement with fresh culture medium. The HS-YFP functional assay was performed after further 24 hours.
To assess the ability of compounds of present invention to improve the rescue of premature stop codon (class I) mutations, we carried out experiments on G542X-CFTR (FIG. 7). Null CFBE41o− cells, devoid of endogenous CFTR expression, were transiently transfected with empty, wild type CFTR or G542X-CFTR plasmids. All cells also received the HS-YFP plasmid to allow functional determination of CFTR-dependent anion transport. […] Where indicated, cells with G542X-CFTR were also treated with G418 (0.5 mg/ml) for 24 hr to induce readthrough of the stop codon mutation, with and without correctors (VX-809 and/or PP028, labeled as VX and PP). […] The activity resulting from wild type CFTR is also shown for comparison.

F508del-CFTR [3] = target: T1, F508del-CFTR; test: Analysis of F508del-CFTR localization by immunofluorescence in CFBE41o− cells; assay type: cell-based; design: expressed in transfected cells; host or cells: CFBE41o- cells with expression of F508del-CFTR and HS-YFP (generated as in Sondo et al. 2011); details: compound 10 μM plus VX-809 1 μM, 24 hr
Protocol: CFBE41o− cells were seeded in a 12-well μ-chamber (81201, Ibidi) at a density of 25.000 cells per well and treated with compounds for 24 hr. Cells were then rinsed with PBS and fixed by adding 100 μl per well of 10% neutral buffered formalin for 5 minutes at room temperature. After 3 washes with 300 μl of PBS, cells were permeabilized with PBS-Triton X-100 0.3% for 5 min, blocked with PBS-BSA 1% for 2 hr, and incubated overnight at 4° C. with 100 μl of primary antibody diluted in blocking solution. The CFTR antibody was ab570 mouse IgG1 (University of North Carolina at Chapel Hill, and Cystic Fibrosis Foundation Therapeutics, see Cui L, et al. J. Mol Biol 2007, 365, 981-994) diluted at 1:250. Following incubation with primary antibody, cells were rinsed three times with PBS and incubated with 100 μl of a solution of secondary goat anti-mouse Alexa Fluor-546 antibodies (Invitrogen A-11030) diluted in PBS-BSA 1% for 1 hour in the dark. After three further washes in PBS, cells were covered with mounting medium and coverslip, and then analysed using a laser-scanning confocal microscope SPE (Leica Microsystems).
As a second type of experiment, the localization of F508del-CFTR protein was evaluated by immunofluorescence. Cells were treated with compounds, then fixed and immunostained with antibodies against CFTR. Images were taken with a confocal microscope.

T1 sequence (P13569 with tags, fused parts or gaps DEL508-508): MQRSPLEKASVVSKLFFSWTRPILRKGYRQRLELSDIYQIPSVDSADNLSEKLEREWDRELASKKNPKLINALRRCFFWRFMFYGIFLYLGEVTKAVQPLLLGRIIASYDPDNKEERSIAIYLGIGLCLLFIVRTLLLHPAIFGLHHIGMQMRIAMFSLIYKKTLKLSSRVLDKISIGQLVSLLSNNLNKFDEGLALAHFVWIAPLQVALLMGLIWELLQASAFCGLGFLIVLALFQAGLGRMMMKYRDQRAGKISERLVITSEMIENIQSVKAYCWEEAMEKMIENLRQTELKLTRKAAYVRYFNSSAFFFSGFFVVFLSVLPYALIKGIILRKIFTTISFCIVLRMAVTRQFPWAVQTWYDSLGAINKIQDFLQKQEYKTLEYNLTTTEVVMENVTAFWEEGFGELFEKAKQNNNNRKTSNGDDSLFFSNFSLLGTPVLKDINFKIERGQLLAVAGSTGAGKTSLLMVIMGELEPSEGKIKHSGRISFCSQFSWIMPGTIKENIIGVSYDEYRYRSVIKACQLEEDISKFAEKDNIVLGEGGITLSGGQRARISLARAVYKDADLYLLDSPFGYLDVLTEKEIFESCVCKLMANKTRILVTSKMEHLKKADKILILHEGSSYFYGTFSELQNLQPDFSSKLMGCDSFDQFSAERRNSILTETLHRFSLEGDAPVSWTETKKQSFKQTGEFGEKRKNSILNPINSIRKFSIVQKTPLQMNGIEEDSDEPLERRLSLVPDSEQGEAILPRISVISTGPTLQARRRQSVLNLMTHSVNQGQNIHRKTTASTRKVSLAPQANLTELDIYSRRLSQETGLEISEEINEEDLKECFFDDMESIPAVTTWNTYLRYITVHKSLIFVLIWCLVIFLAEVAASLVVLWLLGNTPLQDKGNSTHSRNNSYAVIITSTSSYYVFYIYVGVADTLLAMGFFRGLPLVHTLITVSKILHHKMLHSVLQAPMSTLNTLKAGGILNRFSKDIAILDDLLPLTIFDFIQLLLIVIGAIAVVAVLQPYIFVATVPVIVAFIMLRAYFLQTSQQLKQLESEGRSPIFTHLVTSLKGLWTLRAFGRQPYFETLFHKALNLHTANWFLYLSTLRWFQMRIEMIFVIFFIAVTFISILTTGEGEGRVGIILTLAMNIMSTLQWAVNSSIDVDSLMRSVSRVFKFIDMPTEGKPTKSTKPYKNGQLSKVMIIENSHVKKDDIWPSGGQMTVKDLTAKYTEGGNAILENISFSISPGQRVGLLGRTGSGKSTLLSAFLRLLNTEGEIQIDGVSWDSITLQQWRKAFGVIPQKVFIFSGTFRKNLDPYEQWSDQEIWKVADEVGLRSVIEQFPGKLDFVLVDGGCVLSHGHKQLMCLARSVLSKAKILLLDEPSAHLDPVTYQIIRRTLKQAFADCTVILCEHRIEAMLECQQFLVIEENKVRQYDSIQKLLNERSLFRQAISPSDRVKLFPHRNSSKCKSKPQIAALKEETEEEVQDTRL

| effect of combination with VX-809 on F508del-CFTR current (F508del-CFTR [1]) | Structure (SMILES) | calcium-dependent chloride secretion [2] | CFTR activity (QR) in G542X-CFTR cells versus G418 alone (G542X-CFTR; G418 0.5 mg/ml plus VX-809 1 μM or PP028 10 μM) | comparison of co-treatments with G418 in G542X-CFTR cells (G542X-CFTR; PP028 10 μM versus VX-809 1 μM, each plus G418) | F508del-CFTR localization (F508del-CFTR [3]) |
| --- | --- | --- | --- | --- | --- |
| synergistic effect | CCOC(=O)c1c(Br)c2c(n1Cc1ccc(C)cc1)-c1[nH]c(=O)c(S(=O)(=O)c3ccccc3)cc1CC2 [PP008, Ethyl 7-(benzenesulfonyl)-3-bromo-1-[(4-methylphenyl)methyl]-8-oxo-4,5,8,9-tetrahydro-1H-pyrrolo[3,2-h]quinoline-2-carboxylate] | does not modify | – | – | – |
| – | CCOC(=O)c1c(Br)c2c(n1Cc1cccc(C)c1)-c1[nH]c(=O)c(S(=O)(=O)c3ccccc3)cc1CC2 [PP028, Ethyl 3-bromo 1-(3-methylbenzyl)-8-oxo-7-(phenylsulfonyl)-4,5,8,9-tetrahydro-1H-pyrrolo[3,2-h]quinoline-2-carboxylate] | – | further increased activity | significantly more effective than VX-809 | cause appearance of F508del-CFTR at the cell periphery |
